As usually defined, the IC50 is the concentration that inhibits the measured activity by half. Lower therefore signals greater potency in that assay. What is called Ki is the dissociation constant of the complex between target and ligand, obtained from inhibition or displacement.

Test [1] addresses T1, N(G),N(G)-dimethylarginine dimethylaminohydrolase 1 (Homo sapiens, UniProt O94760). Nature of the test: Inhibition of human DDAH1 using SMTC as substrate by fluorimetric assay.
Test [2] concerns the target T1, N(G),N(G)-dimethylarginine dimethylaminohydrolase 1. The experiment in a line: Inhibition of human DDAH1 expressed using SMTC as substrate assessed as inhibition constant measured after 5 mins.
A further test addresses Nitric oxide synthase 1 (Homo sapiens, UniProt P29475). Nature of the test: Inhibition of human nNOS assessed as inhibition constant measured after 5 mins.
Test [3] deals with T1, N(G),N(G)-dimethylarginine dimethylaminohydrolase 1. The experiment in a line: Inhibition of human DDAH1 assessed as inhibition constant.
Test [4] has the same target. The experiment in a line: Inhibition of His-tagged human DDAH1 using SMTC as substrate assessed as inhibition constant.
For test [5] the target is unchanged. Nature of the test: Inhibition of human DDAH1 expressed using SMTC as substrate measured after 5 mins.
The species entered for test [6] is Homo sapiens. The experiment in a line: Selectivity index, ratio of Ki for Inhibition of N-terminal His6-tagged human DDAH1 transfected in HEK293T cells to Ki for human arginase. Type of test: cell-based.
Test [7] in a line: Upregulation of DDAH1 (unknown origin) transfected in HEK293T cells by Western blot analysis relative to control. The class given is functional, Homo sapiens, HEK-293T. (In general: Immunoblotting shows a protein as a band on a membrane.)
For test [8], the species on record is Homo sapiens. The experiment in a line: Selectivity index, ratio of Ki for Inhibition of N-terminal His6-tagged human DDAH1 transfected in HEK293T cells to Ki for human eNOS. The class given is cell-based.
The target in test [9] is T1, N(G),N(G)-dimethylarginine dimethylaminohydrolase 1. The experiment in a line: Inhibition of N-terminal His6-tagged human DDAH1 expressed in Escherichia coli measured after 18 hrs.
For test [10] the target is unchanged. Nature of the test: Inhibition of human DDAH1.

T1 sequence (O94760 whole entry): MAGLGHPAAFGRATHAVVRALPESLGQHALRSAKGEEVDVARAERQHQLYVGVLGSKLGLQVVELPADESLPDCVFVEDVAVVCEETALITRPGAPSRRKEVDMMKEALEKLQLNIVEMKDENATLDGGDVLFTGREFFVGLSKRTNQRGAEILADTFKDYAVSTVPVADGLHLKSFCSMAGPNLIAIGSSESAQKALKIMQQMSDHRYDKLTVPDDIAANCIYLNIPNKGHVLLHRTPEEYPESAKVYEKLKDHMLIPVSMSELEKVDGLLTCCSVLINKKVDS
Nitric oxide synthase 1, sequence (P29475 whole entry): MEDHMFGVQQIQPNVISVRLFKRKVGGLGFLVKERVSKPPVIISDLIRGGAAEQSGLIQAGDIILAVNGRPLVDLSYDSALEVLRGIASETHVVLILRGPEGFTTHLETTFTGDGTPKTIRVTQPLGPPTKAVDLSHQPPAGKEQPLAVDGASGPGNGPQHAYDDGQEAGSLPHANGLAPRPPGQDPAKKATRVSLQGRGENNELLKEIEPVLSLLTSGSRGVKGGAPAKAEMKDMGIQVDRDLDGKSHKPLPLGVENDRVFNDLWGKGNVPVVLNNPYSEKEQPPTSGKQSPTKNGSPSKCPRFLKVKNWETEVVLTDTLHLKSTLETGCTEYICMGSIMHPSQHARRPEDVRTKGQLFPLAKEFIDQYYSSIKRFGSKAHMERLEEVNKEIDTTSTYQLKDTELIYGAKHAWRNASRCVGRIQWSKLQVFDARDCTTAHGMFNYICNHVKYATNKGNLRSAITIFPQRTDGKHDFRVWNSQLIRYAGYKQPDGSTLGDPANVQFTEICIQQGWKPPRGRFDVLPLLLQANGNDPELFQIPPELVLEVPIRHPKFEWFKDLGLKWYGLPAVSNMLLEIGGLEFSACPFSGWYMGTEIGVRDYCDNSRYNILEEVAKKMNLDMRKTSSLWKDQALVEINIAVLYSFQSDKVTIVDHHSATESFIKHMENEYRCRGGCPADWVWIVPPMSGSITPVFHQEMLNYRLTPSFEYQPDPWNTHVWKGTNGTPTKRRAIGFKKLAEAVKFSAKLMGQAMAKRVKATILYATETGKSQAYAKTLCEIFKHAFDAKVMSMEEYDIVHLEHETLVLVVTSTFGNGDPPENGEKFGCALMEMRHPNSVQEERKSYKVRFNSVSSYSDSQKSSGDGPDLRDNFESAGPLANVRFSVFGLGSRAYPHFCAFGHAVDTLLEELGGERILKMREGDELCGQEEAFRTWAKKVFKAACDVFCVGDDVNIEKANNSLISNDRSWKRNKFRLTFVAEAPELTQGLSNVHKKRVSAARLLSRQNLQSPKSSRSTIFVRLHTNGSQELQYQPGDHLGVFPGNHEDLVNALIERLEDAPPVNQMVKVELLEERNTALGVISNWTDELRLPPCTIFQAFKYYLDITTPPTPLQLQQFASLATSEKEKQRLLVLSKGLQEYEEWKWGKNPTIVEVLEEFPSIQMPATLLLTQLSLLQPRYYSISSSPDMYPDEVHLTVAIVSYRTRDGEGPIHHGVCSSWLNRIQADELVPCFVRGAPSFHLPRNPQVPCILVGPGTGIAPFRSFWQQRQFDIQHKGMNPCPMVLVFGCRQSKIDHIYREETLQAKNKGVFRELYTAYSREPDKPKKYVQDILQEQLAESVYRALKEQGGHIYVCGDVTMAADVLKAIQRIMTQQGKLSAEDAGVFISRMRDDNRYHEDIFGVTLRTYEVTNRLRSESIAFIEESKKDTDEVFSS

In test [1], `N=C1Sc2ccccc2C2=NCCCN12` registered an IC50 of 9 µM. The Ki was 110 µM in test [2] and > 1900 µM on Nitric oxide synthase 1.

Regarding `Cc1cc(Br)ccn1`, in test [3], the Ki came out at 2600 µM. Turning to `CC(C)(C)c1cc(C(F)(F)F)c2c(N)c(C(=O)Nc3nccs3)sc2n1`, the Ki in test [4] is 9 µM. In the case of `CCCCCC(=N)NCCC[C@H](N)C(=O)O`, the IC50 in test [5] is > 1900 µM. As for `N=C(CCl)NCCC[C@H](N)C(=O)O`, the Ki in test [2] was found to be 110 µM. Also, the Ratio Ki in the test listed under Homo sapiens [6] and in the test listed under Homo sapiens [8] was > 500 in each case. Besides, the Activity in [7] was determined as 80%. `CCCCCC(O)/C=C/C=O` (configuration not stated) [4-HYDROXYNON-2-ENAL]: in [9], the IC50 came out at 50 µM.

In [10], `C#CCCNC(=N)CCl` had an IC50 of 350 µM.

Values taken from ChEMBL document CHEMBL5360519, “Chemical similarities and differences among inhibitors of nitric oxide synthase, arginase and dimethylarginine dimethylaminohydrolase-1: Implications for the design of novel enzyme inhibitors modulating the nitric oxide pathway” (Bioorg Med Chem, 2022).
